The results in this text go back to patent US20250064941A1, “SIGLEC LIGANDS, CONJUGATES, AND METHODS OF USE THEREOF” (Osprey Biopharmaceuticals, Inc., priority 2023, published 2025).

Test [1] concerns the target T1, human Siglec-2/CD22 protein (Homo sapiens, UniProt P20273).
T1 construct: purchased Acro Biosystems SI2-H82E3
T1 sequence (P20273 20-847): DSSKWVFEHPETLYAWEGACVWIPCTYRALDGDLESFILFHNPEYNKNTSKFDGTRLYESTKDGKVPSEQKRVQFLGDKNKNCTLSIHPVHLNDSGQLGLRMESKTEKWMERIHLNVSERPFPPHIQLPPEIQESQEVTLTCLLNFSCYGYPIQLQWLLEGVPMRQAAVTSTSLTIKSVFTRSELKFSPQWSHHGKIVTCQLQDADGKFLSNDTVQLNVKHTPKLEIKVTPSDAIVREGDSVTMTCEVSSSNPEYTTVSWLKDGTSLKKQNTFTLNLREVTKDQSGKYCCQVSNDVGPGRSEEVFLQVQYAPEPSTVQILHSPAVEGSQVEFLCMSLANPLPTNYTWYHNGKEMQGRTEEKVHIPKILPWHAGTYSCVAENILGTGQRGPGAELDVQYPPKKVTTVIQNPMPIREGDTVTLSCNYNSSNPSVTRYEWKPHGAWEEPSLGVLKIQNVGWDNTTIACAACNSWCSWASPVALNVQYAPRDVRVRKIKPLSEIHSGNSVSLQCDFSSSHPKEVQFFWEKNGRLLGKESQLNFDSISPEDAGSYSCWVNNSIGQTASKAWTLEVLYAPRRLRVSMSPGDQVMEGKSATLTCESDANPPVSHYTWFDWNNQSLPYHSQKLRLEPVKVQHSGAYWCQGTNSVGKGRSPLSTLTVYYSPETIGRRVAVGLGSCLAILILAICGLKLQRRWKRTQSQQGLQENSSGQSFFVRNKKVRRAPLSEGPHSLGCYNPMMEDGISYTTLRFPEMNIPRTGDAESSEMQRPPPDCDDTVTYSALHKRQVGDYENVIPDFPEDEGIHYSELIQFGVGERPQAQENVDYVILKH
The test can be described thus: SPR binding affinity to human CD22. The settings on record: steady-state analysis. In short, it runs like this: (§1)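 SialoExo pretreatment, 4 h 37° C.; biotinylated CD22 on SA chip, Biacore 8K. Buffer 10 mM HEPES, 150 mM NaCl, 0.05% Tween-20, pH 7.5, 1% DMSO. Dissociation 120 s; solvent-corrected; steady-state KD.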

Test [2] deals with T2, mouse Siglec-2-Fc-Avi (CD22) (Mus musculus, UniProt P35329).
T2 construct: made in house
T2 sequence (P35329 22-708 limits assumed): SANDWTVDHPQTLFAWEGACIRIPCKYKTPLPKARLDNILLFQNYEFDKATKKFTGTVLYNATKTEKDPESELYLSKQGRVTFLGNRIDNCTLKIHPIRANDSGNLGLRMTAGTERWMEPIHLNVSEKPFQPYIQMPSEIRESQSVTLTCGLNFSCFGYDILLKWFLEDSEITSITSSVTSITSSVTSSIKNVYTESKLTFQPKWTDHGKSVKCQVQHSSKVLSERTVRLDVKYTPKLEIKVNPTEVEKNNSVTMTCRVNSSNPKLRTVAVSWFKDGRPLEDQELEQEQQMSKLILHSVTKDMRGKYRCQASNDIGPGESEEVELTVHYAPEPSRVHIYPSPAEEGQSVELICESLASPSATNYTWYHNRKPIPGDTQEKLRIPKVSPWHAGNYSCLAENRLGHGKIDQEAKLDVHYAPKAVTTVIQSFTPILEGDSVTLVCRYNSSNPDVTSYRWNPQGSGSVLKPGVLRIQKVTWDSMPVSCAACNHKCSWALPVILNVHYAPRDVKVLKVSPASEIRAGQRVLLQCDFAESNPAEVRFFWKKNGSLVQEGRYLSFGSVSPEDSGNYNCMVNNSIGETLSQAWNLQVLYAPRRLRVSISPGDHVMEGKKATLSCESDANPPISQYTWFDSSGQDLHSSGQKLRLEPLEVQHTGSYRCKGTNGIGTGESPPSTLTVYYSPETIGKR
Nature of the test: SPR binding affinity to mouse CD22. The settings on record: steady-state analysis. The procedure, abridged: as §1
For orientation: In SPR one partner is held on a chip, and binding of the other changes the refractive index at the surface.

Test [3] concerns the target cynomolgus Siglec-2/CD22 (Macaca fascicularis, UniProt A0A2K5WCZ6). The test can be described thus: biochemical. The class given is binding. The settings on record: SPR, steady-state analysis; read-out: Affinity cyno CD22. In short, it runs like this:
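Compound binding measured by steady-state SPR analysis, 120 s dissociation, in HEPES-NaCl-Tween buffer pH 7.5 containing 1% DMSO, DMSO solvent-corrected. Surface: cyno CD22, sialic acids first stripped by SialoExo for 4 h at 37° C., then amine-coupled onto CM5.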

Some results are limits rather than exact numbers.

Sequence of cynomolgus Siglec-2/CD22 (A0A2K5WCZ6 entry or part of it): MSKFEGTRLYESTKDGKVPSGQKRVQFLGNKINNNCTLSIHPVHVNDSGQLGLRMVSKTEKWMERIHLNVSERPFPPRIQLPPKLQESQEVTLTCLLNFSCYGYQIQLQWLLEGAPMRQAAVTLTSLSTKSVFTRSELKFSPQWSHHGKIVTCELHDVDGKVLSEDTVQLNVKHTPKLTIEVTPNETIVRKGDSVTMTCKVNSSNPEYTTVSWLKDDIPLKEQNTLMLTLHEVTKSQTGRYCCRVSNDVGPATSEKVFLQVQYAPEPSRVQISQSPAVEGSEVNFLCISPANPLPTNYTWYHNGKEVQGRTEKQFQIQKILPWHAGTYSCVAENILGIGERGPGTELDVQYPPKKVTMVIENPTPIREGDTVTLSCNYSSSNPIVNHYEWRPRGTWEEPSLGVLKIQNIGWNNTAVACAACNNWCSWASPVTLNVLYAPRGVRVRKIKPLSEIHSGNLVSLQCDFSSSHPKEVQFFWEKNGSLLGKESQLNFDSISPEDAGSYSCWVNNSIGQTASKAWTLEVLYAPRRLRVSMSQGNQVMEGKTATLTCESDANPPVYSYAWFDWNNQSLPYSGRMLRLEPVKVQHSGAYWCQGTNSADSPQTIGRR

As for `O=C(Cc1ccc(Cl)cc1)NC[C@@H](O)[C@@H](O)[C@@H]1O[C@@](OCC2CCOCC2)(C(=O)O)C[C@H](O)[C@H]1NC(=O)CO` [Compound 106, (2R,4S,5R,6R)-6-((1R,2R)-3-(2-(4-chlorophenyl)acetamido)-1,2-dihydroxypropyl)-4-hydroxy-5-(2-hydroxyacetamido)-2-((tetrahydro-2H-pyran-4-yl)methoxy)tetrahydro-2H-pyran-2-carboxylic acid], the Kd in test [1] is less than 1 µM; in test [2] it was 1 to 10 µM; in test [3], less than 1 µM.

As to `O=C(Cc1ccc(Cl)cc1)NC[C@@H](O)[C@@H](O)[C@@H]1O[C@@](OCCCCCCNC(=O)c2ccccc2)(C(=O)O)C[C@H](O)[C@H]1NC(=O)CO` [Compound 108, (2R,4S,5R,6R)-2-((6-benzamidohexyl)oxy)-6-((1R,2R)-3-(2-(4-chlorophenyl)acetamido)-1,2-dihydroxypropyl)-4-hydroxy-5-(2-hydroxyacetamido)tetrahydro-2H-pyran-2-carboxylic acid], the Kd in test [1], in test [2] and in test [3] was less than 1 µM each time.

Turning to `C#CCCCCCCCCO[C@]1(C(=O)O)C[C@H](O)[C@@H](NC(=O)CO)[C@H]([C@H](O)[C@H](O)CNC(=O)Cc2ccc(Cl)cc2)O1` [Compound 109, (2R,4S,5R,6R)-6-((1R,2R)-3-(2-(4-chlorophenyl)acetamido)-1,2-dihydroxypropyl)-2-(dec-9-yn-1-yloxy)-4-hydroxy-5-(2-hydroxyacetamido)tetrahydro-2H-pyran-2-carboxylic acid], the Kd in test [1], in test [2] and in test [3] was less than 1 µM each time.

Regarding `C#CCCCCCCO[C@]1(C(=O)O)C[C@H](O)[C@@H](NC(=O)CO)[C@H]([C@H](O)[C@H](O)CNC(=O)Cc2ccc(Cl)cc2)O1` [Compound 110, (2R,4S,5R,6R)-6-((1R,2R)-3-(2-(4-chlorophenyl)acetamido)-1,2-dihydroxypropyl)-4-hydroxy-5-(2-hydroxyacetamido)-2-(oct-7-yn-1-yloxy)tetrahydro-2H-pyran-2-carboxylic acid], the Kd in test [1], in test [2] and in test [3] was less than 1 µM each time.

Take `C#CCOCCOCCOCCOCCC(=O)NCCOCCOCCO[C@]1(C(=O)O)C[C@H](O)[C@@H](NC(=O)CO)[C@H]([C@H](O)[C@H](O)CNC(=O)Cc2ccc(Cl)cc2)O1` [Compound 111, (2R,4S,5R,6R)-6-((1R,2R)-3-(2-(4-chlorophenyl)acetamido)-1,2-dihydroxypropyl)-4-hydroxy-5-(2-hydroxyacetamido)-2-((10-oxo-3,6,13,16,19,22-hexaoxa-9-azapentacos-24-yn-1-yl)oxy)tetrahydro-2H-pyran-2-carboxylic acid]: the Kd was 1 to 10 µM in test [1], 1 to 10 µM in test [2] and less than 1 µM in test [3].

As to `C#CCNc1c(NCCCCCCO[C@]2(C(=O)O)C[C@H](O)[C@@H](NC(=O)CO)[C@H]([C@H](O)[C@H](O)CNC(=O)Cc3ccc(Cl)cc3)O2)c(=O)c1=O` [Compound 112, (2R,4S,5R,6R)-6-((1R,2R)-3-(2-(4-chlorophenyl)acetamido)-1,2-dihydroxypropyl)-2-((6-((3,4-dioxo-2-(prop-2-yn-1-ylamino)cyclobut-1-en-1-yl)amino)hexyl)oxy)-4-hydroxy-5-(2-hydroxyacetamido)tetrahydro-2H-pyran-2-carboxylic acid], the Kd in test [1], in test [2] and in test [3] was less than 1 µM throughout.

On to `C#CCOCCCCCCO[C@]1(C(=O)O)C[C@H](O)[C@@H](NC(=O)CO)[C@H]([C@H](O)[C@H](O)CNC(=O)Cc2ccc(Cl)cc2)O1` [Compound 113, (2R,4S,5R,6R)-6-((1R,2R)-3-(2-(4-chlorophenyl)acetamido)-1,2-dihydroxypropyl)-4-hydroxy-5-(2-hydroxyacetamido)-2-((6-(prop-2-yn-1-yloxy)hexyl)oxy)tetrahydro-2H-pyran-2-carboxylic acid], for which the values for the Kd in test [1], in test [2] and in test [3] were less than 1 µM, 1 to 10 µM and less than 1 µM, respectively.

Turning to `C#Cc1ccc(CO[C@]2(C(=O)O)C[C@H](O)[C@@H](NC(=O)CO)[C@H]([C@H](O)[C@H](O)CNC(=O)Cc3ccc(Cl)cc3)O2)cc1` [Compound 114, (2R,4S,5R,6R)-6-((1R,2R)-3-(2-(4-chlorophenyl)acetamido)-1,2-dihydroxypropyl)-2-((4-ethynylbenzyl)oxy)-4-hydroxy-5-(2-hydroxyacetamido)tetrahydro-2H-pyran-2-carboxylic acid], the Kd in test [1], in test [2] and in test [3] was less than 1 µM in each case.

As to `O=C(Cc1ccc(Cl)cc1)NC[C@@H](O)[C@@H](O)[C@@H]1O[C@@](SCc2cccc(C(=O)O)c2)(C(=O)O)C[C@H](O)[C@H]1NC(=O)CO` [Compound 116, (2S,4S,5R,6R)-2-((3-carboxybenzyl)thio)-6-((1R,2R)-3-(2-(4-chlorophenyl)acetamido)-1,2-dihydroxypropyl)-4-hydroxy-5-(2-hydroxyacetamido)tetrahydro-2H-pyran-2-carboxylic acid], the results for the Kd in test [1], in test [2] and in test [3] were less than 1 µM, 1 to 10 µM and less than 1 µM, respectively.

As for `O=C(O)CCCO[C@]1(C(=O)O)C[C@H](O)[C@@H](NC(=O)CO)[C@H]([C@H](O)[C@H](O)CNC(=O)Cc2ccc(Cl)cc2)O1` [Compound 118, (2R,4S,5R,6R)-2-(3-carboxypropoxy)-6-((1R,2R)-3-(2-(4-chlorophenyl)acetamido)-1,2-dihydroxypropyl)-4-hydroxy-5-(2-hydroxyacetamido)tetrahydro-2H-pyran-2-carboxylic acid], the Kd in test [1] is 1 to 10 µM; in test [2], greater than 10 µM; in test [3], 1 to 10 µM.

For `C#CCCCCCCc1cn([C@]2(C(=O)O)C[C@H](O)[C@@H](NC(=O)CO)[C@H]([C@H](O)[C@H](O)CNC(=O)Cc3ccc(Cl)cc3)O2)nn1` [Compound 119, (2R,4S,5R,6R)-6-((1R,2R)-3-(2-(4-chlorophenyl)acetamido)-1,2-dihydroxypropyl)-4-hydroxy-5-(2-hydroxyacetamido)-2-(4-(oct-7-yn-1-yl)-1H-1,2,3-triazol-1-yl)tetrahydro-2H-pyran-2-carboxylic acid], the Kd in test [1], in test [2] and in test [3] was 1 to 10 µM in each case.

For the compound `C#CCCOc1ccc(CS[C@]2(C(=O)O)C[C@H](O)[C@@H](NC(=O)CO)[C@H]([C@H](O)[C@H](O)CNC(=O)Cc3cccc(Cl)c3)O2)cc1` [Compound 120, (2S,4S,5R,6R)-2-((4-(but-3-yn-1-yloxy)benzyl)thio)-6-((1R,2R)-3-(2-(3-chlorophenyl)acetamido)-1,2-dihydroxypropyl)-4-hydroxy-5-(2-hydroxyacetamido)tetrahydro-2H-pyran-2-carboxylic acid], the Kd in test [1] was less than 1 µM; in test [2] it was 1 to 10 µM; in test [3] it was less than 1 µM.
